The source of these data is paper PMC3694332 (Biopharmaceutics & drug disposition, 2009).

One series relates to cellular GSH levels. Conditions: 100 μM, 2 h incubation; cited from earlier work.
For another series, the system named is CaCo2 cell monolayers. Conditions: cited from earlier work.
The test system of series [1] is MRP1. Conditions: cited from earlier work.
Series [2] deals with P-gp. Conditions: MCF7/ADR cells, 100 μM isothiocyanate, 2 h; cited from earlier work.
The subject of series [3] is BCRP. Conditions: NHI-H460/MX20, BCRP; cited from earlier work.
For series [4], the system named is BCRP. Conditions: FTC 10 μM, 25 μM PEITC; cited from earlier work.
For series [5] the following is noted: rat, in vivo, cited from earlier work.
For series [6], the system named is P-gp. Conditions: verapamil or PSC833; Caco-2, MCF-7/ADR, MDA435/LCC6, MDA435/LCC6MDR1 cells; cited from earlier work.
A further series deals with MRP2. Conditions: cited from earlier work.
For series [7], the system named is MRP1. Conditions: cited from earlier work. This is another data set of the same source.
The conditions of series [8]: human, in vivo; cited from earlier work.
Series [9] concerns P-gp. Conditions: cited from earlier work; for investigated as substrate (S)/inhibitor (I): 8226/Dox, P-gp.
For series [10], the system named is MRP1. Conditions: Panc-1 cells, 100 μM isothiocyanate, 2 h; cited from earlier work.
Series [11] is described as follows: Effect of BITC co-administration on topotecan pharmacokinetics. Conditions: Sprague-Dawley, rat, plasma.
The conditions of series [12]: rats; cited from earlier work.
For series [13] the following is noted: cited from earlier work.
The conditions of series [14]: rats, cited from earlier work.

Read-outs that look alike come from different tables or passages of the source.

A word on the clearance: it is a measure of how efficiently the substance is removed, as volume per time. For orientation: Cmax means the highest concentration seen after dosing. Usually Tmax stands for the time at which the peak concentration occurs. By CL/F is commonly meant the apparent clearance, not corrected for the fraction that reaches the circulation.

For `S=C=NCc1ccccc1` [BITC, benzyl isothiocyanate], in the series on cellular GSH levels, the “GSH, % of control values in untreated cells” value is recorded as 15.3±6.4 % of control and the “decrease of cellular GSH levels” value is given as “decreased”. Also, in the series with CaCo2 cell monolayers, the “increase in accumulation of daunomycin” value is listed as 1.75 fold.

As for `C=CCN=C=S` [Allyl isothiocyanate], the “investigated as substrate (S)/inhibitor (I)” value in the series with MRP1 [1] (HL60/AR, MRP1) is “Allyl isothiocyanate (S)”.

With `S=C=NCCc1ccccc1` [PEITC, phenethyl isothiocyanate], the entries for the “increase in accumulation of vinblastine” value with P-gp [2] and in the series with MRP1 [10] were “not” and 2 fold, respectively. The “investigated as substrate (S)/inhibitor (I)” value with BCRP [3] and in the series with P-gp [9] was “Phenethyl isothiocyanate (S)” in each case. The “decrease of ATP-dependent accumulation of PEITC in inside-out vesicles by FTC” value with BCRP [4] is 1.7 fold. In [5] (2 umol/kg), the clearance was 11.6 mL/min/kg. The Half-life in [5] (iv, 66 mg/kg) was 13.1 h (i.v.); in series [8], 4.9 h. Also, the Cmax in series [5] (po, 16.3 mg/kg) was 42.1 µM; in [8], 0.928 µM. Also, the Tmax is reported as 2.0 h in series [5] (po, 16.3 mg/kg) and 2.6 h in series [8]. In [5] (po), the oral bioavailability entry is on record as “high”. For the same compound, in [5], the Nonlinear pharmacokinetics entry is recorded as “Yes”. Besides, in the series on P-gp [6], the “accumulation of 14C-PEITC in absence and presence of P-gp inhibitor” value is “not changed”. Also, the “increase of intracellular 14C accumulation by MK571” value in the series with MRP2 (50 μM MK571, PEITC 1 μM) was 2.5 fold; with MRP2 (50 μM MK571, PEITC 5 μM), 3.5 fold; with MRP2 (50 μM MK571, PEITC 10 μM) it was 4.5 fold; with MRP2 (50 μM MK571, PEITC 50 μM) it was 1.8 fold. For the same compound, the “intracellular 14C lower in MDCK/MRP2 than in wild type MDCKII cells” value was 55% in the series with MRP2 (PEITC 1 μM), 14% with MRP2 (PEITC 5 μM), 12% in the series on MRP2 (PEITC 10 μM) and 61% in the series with MRP2 (PEITC 50 μM). Moreover, in the series on MRP1 [7] (100 μM MK571, higher PEITC concentrations), the “change of 14C tracer accumulation by MK571” value is “did not change”. Besides, the “increase of 14C tracer accumulation by MK571” value was 6.8 fold in the series with MRP1 [7] (2 h co-incubation with 100 μM MK571, PEITC 1 μM); 5.9 fold in the series with MRP1 [7] (2 h co-incubation with 100 μM MK571, PEITC 5 μM); 1.9 fold with MRP1 [7] (2 h co-incubation with 100 μM MK571, PEITC 20 μM). Further, in [8], the CL/F was 29.5 L/h. The “GSH, % of control values in untreated cells” value in the series with cellular GSH levels is 10±3.5 % of control. Besides, the “decrease of cellular GSH levels” value in the series with cellular GSH levels was “decreased”. For the same compound, the “increase in accumulation of daunomycin” value in the series with CaCo2 cell monolayers is 1.85 fold.

`CC[C@@]1(O)C(=O)OCc2c1cc1n(c2=O)Cc2cc3c(CN(C)C)c(O)ccc3nc2-1` [topotecan]: the AUC(0-inf) in [11] (iv, 1 mg/kg, AUC0–∞, i.v. administration of 1 mg/kg topotecan, four rats) was 707 ng·h/mL. For the same compound, the AUC(0-t) in series [11] (po, 2 mg/kg, AUC0–720 min, topotecan alone (2 mg/kg dose)) is 182 ng·h/mL.

With `S=C=Nc1cccc2ccccc12` [NITC, α-naphthyl isothiocyanate], the “decrease of cellular GSH levels” value with cellular GSH levels is “not”. Moreover, the Nonlinear pharmacokinetics result in series [12] is “Yes”.

As to `CC[C@@]1(O)C(=O)OCc2c1cc1n(c2=O)Cc2cc3c(CNC)c(O)ccc3nc2-1` [N-desmethyl topotecan], the “percent of N-desmethyl topotecan formed” value is recorded as “less than 0.7%” in [13] (in the plasma) and 1–4% in series [13] (in the urine).

With `C[S+]([O-])CCCCN=C=S` (stereo not drawn) [Sulforaphane, sulforaphane], the “accumulation of intracellular sulforaphane with inhibitors of MRP1” value in the series with MRP1 [1] (MRP1 over-expressing cells) was “increased”. Also, the Cmax in [14] (50 μmol oral (Table 1: 88.5 mg oral), plasma) was 20 µM. Further, the Half-life is listed as 2.23 h in [14] (50 μmol oral (Table 1: 88.5 mg oral)) and “about 2.2 h” in series [14] (50 μmol oral (Table 1: 88.5 mg oral), listed as sulforaphane). Besides, in series [14] (88.5 mg oral), the Tmax is recorded as 4 h. In the series on P-gp [9], the “investigated as substrate (S)/inhibitor (I)” value is “Sulforaphane (S)”. Further, in the series on P-gp [9] (P-gp over-expressing cells), the “accumulation of intracellular sulforaphane with inhibitors of P-gp” value is on record as “increased”.
